From US11312712B2, “Azabenzimidazoles and their use as AMPA receptor modulators” (Janssen Pharmaceutica NV, priority 2015, dated 2022)

What follows are molecules tested against GluA1o-γ8 (GRIA1o-CACNG8 fusion construct) (Homo sapiens (Human), UniProt P42261+Q8WXS5) (assay: Calcium flux assay (FLIPR), inhibition of TARP γ8 dependent AMPA receptor activity). Conditions: GluA1o-γ8 (GRIA1o-CACNG8 fusion) in HEK293 cells, calcium flux after 15 μM glutamate.
Type: cell-based
Outline: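 Glutamate (15 μM) was added to a stable HEK293 line carrying the GluA1o–γ8 fusion, which had been preincubated with compound and calcium dye in HEPES buffer, pH 7.4. Normalized FLIPR fluorescence (no compound vs 10 μM CP465022) was fitted with four parameters; pIC50 is the midpoint's negative log.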

GluA1o-γ8 (GRIA1o-CACNG8 fusion construct), sequence (P42261 other isoform, or with tags, fused parts or gaps): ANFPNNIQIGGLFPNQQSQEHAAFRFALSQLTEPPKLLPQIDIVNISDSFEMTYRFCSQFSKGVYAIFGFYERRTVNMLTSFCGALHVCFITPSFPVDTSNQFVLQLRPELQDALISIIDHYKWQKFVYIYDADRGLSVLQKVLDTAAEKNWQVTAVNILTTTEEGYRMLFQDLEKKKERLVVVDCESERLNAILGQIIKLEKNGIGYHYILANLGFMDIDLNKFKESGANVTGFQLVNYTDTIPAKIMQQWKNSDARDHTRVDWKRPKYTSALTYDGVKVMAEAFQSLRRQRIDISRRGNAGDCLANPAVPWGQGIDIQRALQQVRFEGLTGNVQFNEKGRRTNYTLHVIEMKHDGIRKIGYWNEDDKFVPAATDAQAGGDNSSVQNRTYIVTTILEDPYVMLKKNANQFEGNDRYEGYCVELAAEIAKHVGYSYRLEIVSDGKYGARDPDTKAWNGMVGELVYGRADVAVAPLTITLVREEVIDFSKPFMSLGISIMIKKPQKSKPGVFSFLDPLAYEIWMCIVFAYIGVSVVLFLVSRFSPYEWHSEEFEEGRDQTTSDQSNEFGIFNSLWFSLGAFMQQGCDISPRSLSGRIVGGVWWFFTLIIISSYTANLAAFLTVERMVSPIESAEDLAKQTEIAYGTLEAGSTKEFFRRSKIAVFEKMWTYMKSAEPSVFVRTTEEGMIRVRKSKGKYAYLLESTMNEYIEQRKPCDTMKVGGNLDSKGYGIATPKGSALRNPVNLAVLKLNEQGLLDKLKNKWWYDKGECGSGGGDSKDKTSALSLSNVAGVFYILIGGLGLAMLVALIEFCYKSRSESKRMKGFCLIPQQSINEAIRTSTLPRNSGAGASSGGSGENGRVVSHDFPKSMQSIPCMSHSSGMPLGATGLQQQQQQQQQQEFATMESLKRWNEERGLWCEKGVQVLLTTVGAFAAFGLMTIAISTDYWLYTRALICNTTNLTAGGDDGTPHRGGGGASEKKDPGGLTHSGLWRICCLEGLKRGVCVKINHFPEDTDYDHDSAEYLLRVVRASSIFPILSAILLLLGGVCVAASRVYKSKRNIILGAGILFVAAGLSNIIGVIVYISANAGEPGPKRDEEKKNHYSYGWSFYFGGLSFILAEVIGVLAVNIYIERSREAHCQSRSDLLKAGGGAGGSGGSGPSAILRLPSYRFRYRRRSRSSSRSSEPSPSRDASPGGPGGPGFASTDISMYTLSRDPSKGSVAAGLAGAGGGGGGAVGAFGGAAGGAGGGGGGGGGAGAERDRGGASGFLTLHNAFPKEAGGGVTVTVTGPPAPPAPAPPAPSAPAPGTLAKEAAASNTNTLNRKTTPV

Q: `FC(F)(F)c1ccc2nc([C@H]3C[C@@H](F)C3)n(-c3cc(Cl)c4[nH]ncc4c3)c2n1` [Example 248, 3-(7-Chloro-1H-indazol-5-yl)-2-(3-fluorocyclobutyl)-5-(trifluoromethyl)imidazo[4,5-b]pyridine] was tested. Which IC50 did it give?
A: The IC50 was 0.158 nM.

Q: Which IC50 does the source give for `Cc1ccc2nc([C@H]3C[C@H](F)C3)n(-c3cc(Cl)c4[nH]ncc4c3)c2n1` [Example 249, 3-(7-Chloro-1H-indazol-5-yl)-2-(3-fluorocyclobutyl)-5-methyl-imidazo[4,5-b]pyridine] here?
A: Its IC50 is 0.501 nM.

Q: With `FC(F)(F)c1ccc2nc([C@H]3C[C@H](F)C3)n(-c3cc(Cl)c4[nH]ncc4c3)c2n1` [Example 250, 3-(7-Chloro-1H-indazol-5-yl)-2-(3-fluorocyclobutyl)-5-(trifluoromethyl)imidazo[4,5-b]pyridine] as the molecule, how does the IC50 read?
A: The IC50 was 0.0316 nM.

Q: `COC(C)(C)c1nc2ccc(C(F)(F)F)nc2n1-c1cc(C)c2[nH]ncc2c1` [Example 251, 2-(1-Methoxy-1-methyl-ethyl)-3-(7-methyl-1H-indazol-5-yl)-5-(trifluoromethyl)imidazo[4,5-b]pyridine] was tested. Which IC50 did it give?
A: The IC50 was 2.51 nM.

Q: With `Cc1cc(-n2c(C(C)(F)F)nc3ccc(C(F)(F)F)nc32)cc2cn[nH]c12` [Example 252, 2-(1,1-Difluoroethyl)-3-(7-methyl-1H-indazol-5-yl)-5-(trifluoromethyl)imidazo[4,5-b]pyridine] as the molecule, how does the IC50 read?
A: Its IC50 is 0.158 nM.

Q: `Cc1cc(-n2c(C(C)(C)F)nc3ccc(C(F)(F)F)nc32)cc2cn[nH]c12` [Example 253, 2-(1-Fluoro-1-methyl-ethyl)-3-(7-methyl-1H-indazol-5-yl)-5-(trifluoromethyl)imidazo[4,5-b]pyridine] was tested. Which IC50 did it give?
A: The IC50 was 0.2 nM.

Q: Which IC50 does the source give for `CC(C)(F)c1nc2ccc(C(F)(F)F)nc2n1-c1cc(Cl)c2[nH]ncc2c1` [Example 254, 3-(7-Chloro-1H-indazol-5-yl)-2-(1-fluoro-1-methyl-ethyl)-5-(trifluoromethyl)imidazo[4,5-b]pyridine] here?
A: Its IC50 is 0.0631 nM.

Q: Which IC50 does the source give for `Cc1cc(-n2c(C3CC3)nc3ccc(C(F)(F)F)nc32)cc2cn[nH]c12` [Example 255, 2-Cyclopropyl-3-(7-methyl-1H-indazol-5-yl)-5-(trifluoromethyl)imidazo[4,5-b]pyridine] here?
A: The IC50 was 0.0316 nM.

Q: How did the IC50 turn out when `FC(F)(F)c1ccc2nc(C3(F)CC3)n(-c3cc(Cl)c4[nH]ncc4c3)c2n1` [Example 258, 3-(7-Chloro-1H-indazol-5-yl)-2-(1-fluorocyclopropyl)-5-(trifluoromethyl)imidazo[4,5-b]pyridine] was run?
A: The IC50 was 0.0631 nM.

Q: With `Cc1cc(-n2c(C3(F)CC3)nc3ccc(C(F)(F)F)nc32)cc2cn[nH]c12` [Example 259, 2-(1-Fluorocyclopropyl)-3-(7-methyl-1H-indazol-5-yl)-5-(trifluoromethyl)imidazo[4,5-b]pyridine] as the molecule, how does the IC50 read?
A: The IC50 was 0.0794 nM.

Q: Which IC50 does the source give for `Cc1cc(-n2c(-c3ccnc(F)c3)nc3ccc(C(F)F)nc32)cc2cn[nH]c12` [Example 263, 5-(Difluoromethyl)-2-(2-fluoro-4-pyridyl)-3-(7-methyl-1H-indazol-5-yl)imidazo[4,5-b]pyridine] here?
A: The IC50 was 0.158 nM.

Q: With `Fc1cc(-c2nc3ccc(C(F)F)nc3n2-c2cc(Cl)c3[nH]ncc3c2)ccn1` [Example 264, 3-(7-Chloro-1H-indazol-5-yl)-5-(difluoromethyl)-2-(2-fluoro-4-pyridyl)imidazo[4,5-b]pyridine] as the molecule, how does the IC50 read?
A: Its IC50 is 0.1 nM.

Q: Which IC50 does the source give for `FC(F)(F)c1ccc2nc(C(F)(F)F)n(-c3cc(Cl)c4cn[nH]c4c3)c2n1` [Example 265, 3-(4-Chloro-1H-indazol-6-yl)-2,5-bis(trifluoromethyl)imidazo[4,5-b]pyridine] here?
A: The IC50 was 126 nM.

Q: Which IC50 does the source give for `CC(F)(F)c1nc2ccc(C(F)(F)F)nc2n1-c1ccc2[nH]c(=O)sc2c1` [Example 266, 6-[2-(1,1-Difluoroethyl)-5-(trifluoromethyl)imidazo[4,5-b]pyridin-3-yl]-3H-1,3-benzothiazol-2-one] here?
A: The IC50 was 0.1 nM.

Q: How did the IC50 turn out when `CC(F)(F)c1nc2ccc(C(F)(F)F)nc2n1-c1cc(Cl)c2[nH]ncc2c1` [Example 267, 3-(7-Chloro-1H-indazol-5-yl)-2-(1,1-difluoroethyl)-5-(trifluoromethyl)imidazo[4,5-b]pyridine] was run?
A: The IC50 was 0.0158 nM.

Q: How did the IC50 turn out when `Cc1ccc2nc(C(F)(F)F)n(-c3cc(Cl)c4[nH]ncc4c3)c2n1` [Example 268, 3-(7-Chloro-1H-indazol-5-yl)-5-methyl-2-(trifluoromethyl)imidazo[4,5-b]pyridine] was run?
A: The IC50 was 0.0631 nM.

Q: For `CC(C)c1nc2ccc(C(F)F)nc2n1-c1cc(Cl)c2[nH]ncc2c1` [Example 269, 3-(7-Chloro-1H-indazol-5-yl)-5-(difluoromethyl)-2-isopropyl-imidazo[4,5-b]pyridine], which IC50 is on record?
A: The IC50 was 0.0316 nM.

Q: Which IC50 does the source give for `FC(F)(F)c1ccc2nc(C(F)(F)F)n(-c3cc(Cl)c4[nH]ncc4c3)c2n1` [Example 270, 3-(7-Chloro-1H-indazol-5-yl)-2,5-bis(trifluoromethyl)imidazo[4,5-b]pyridine] here?
A: The IC50 was 0.02 nM.

Q: For `O=C1Cc2cc(-n3c(C(F)(F)F)nc4ccc(C(F)(F)F)nc43)cc(Cl)c2N1` [Example 271, 5-[2,5-Bis(trifluoromethyl)imidazo[4,5-b]pyridin-3-yl]-7-chloro-indolin-2-one], which IC50 is on record?
A: Its IC50 is 0.2 nM.

Q: How did the IC50 turn out when `O=C1Cc2cc(-n3c(C(F)F)nc4ccc(C(F)(F)F)nc43)cc(Cl)c2N1` [Example 272, 7-Chloro-5-[2-(difluoromethyl)-5-(trifluoromethyl)imidazo[4,5-b]pyridin-3-yl]indolin-2-one] was run?
A: The IC50 was 0.2 nM.

Q: With `Cc1cc(-n2c(C(C)C)nc3ccc(C(F)F)nc32)cc2cn[nH]c12` [Example 273, 5-(Difluoromethyl)-2-isopropyl-3-(7-methyl-1H-indazol-5-yl)imidazo[4,5-b]pyridine] as the molecule, how does the IC50 read?
A: The IC50 was 0.0631 nM.

Q: Which IC50 does the source give for `Cc1nc2ccc(C(F)F)nc2n1-c1cc(Cl)c2[nH]ncc2c1` [Example 274, 3-(7-Chloro-1H-indazol-5-yl)-5-(difluoromethyl)-2-methyl-imidazo[4,5-b]pyridine] here?
A: The IC50 was 0.316 nM.

Q: How did the IC50 turn out when `Cc1cc(-n2c(C(F)(F)F)nc3ccc(C(F)(F)F)nc32)cc2c1NC(=O)C2` [Example 275, 5-[2,5-Bis(trifluoromethyl)imidazo[4,5-b]pyridin-3-yl]-7-methyl-indolin-2-one] was run?
A: The IC50 was 0.126 nM.

Q: With `Cc1cc(-n2c(C(C)(F)F)nc3ccc(C(F)(F)F)nc32)cc2c1NC(=O)C2` [Example 276, 5-[2-(1,1-Difluoroethyl)-5-(trifluoromethyl)imidazo[4,5-b]pyridin-3-yl]-7-methyl-indolin-2-one] as the molecule, how does the IC50 read?
A: Its IC50 is 0.2 nM.

Q: Which IC50 does the source give for `FC(F)c1nc2ccc(C(F)(F)F)nc2n1-c1cc(Cl)c2[nH]ncc2c1` [Example 277, 3-(7-Chloro-1H-indazol-5-yl)-2-(difluoromethyl)-5-(trifluoromethyl)imidazo[4,5-b]pyridine] here?
A: The IC50 was 0.0631 nM.

Q: For `Cc1ccc2nc(C(F)F)n(-c3cc(Cl)c4[nH]ncc4c3)c2n1` [Example 278, 3-(7-Chloro-1H-indazol-5-yl)-2-(difluoromethyl)-5-methyl-imidazo[4,5-b]pyridine], which IC50 is on record?
A: The IC50 was 3.16 nM.

Q: With `Fc1cnc2c(c1)nc(C(F)(F)F)n2-c1cc(Cl)c2[nH]ncc2c1` [Example 279, 3-(7-Chloro-1H-indazol-5-yl)-6-fluoro-2-(trifluoromethyl)imidazo[4,5-b]pyridine] as the molecule, how does the IC50 read?
A: Its IC50 is 1.26 nM.

Q: For `FC(F)c1nc2ccc(C(F)(F)F)nc2n1-c1cc(Br)c2[nH]ncc2c1` [Example 280, 3-(7-Bromo-1H-indazol-5-yl)-2-(difluoromethyl)-5-(trifluoromethyl)imidazo[4,5-b]pyridine], which IC50 is on record?
A: Its IC50 is 0.0158 nM.
